From patent US20220160812A1, “A PHARMACEUTICALLY ACTIVE SUBSTANCE” (Cytopharma GmbH, priority 2019, published 2022)
“Also recorded” adds a separate entry of the source.

Assays:
[1] = test system: BxPC-3 human pancreatic cancer cells; assay: subG1 cell cycle FACS apoptosis assay, BxPC-3 cells; format: cell-based; conditions: BxPC-3, Protocol B, about 24 hours; for apoptosis-inducing activity (subG1) relative to peptides SEQID No 28 and SEQID No 27: SEQID No 41 at 50 μM versus monomeric peptides at 100 μM, FIG. 19
Protocol: (§1) To transfer adherent cells (A375 and BxPC-3 cells) after culture, cells are washed twice with PBS. To detach the cells, the enzyme biotase is used according to the manufacturer's instructions. For this purpose, after washing with PBS, the cells are mixed with biotase (5 ml of biotase solution per 75 cm^2 surface of the cell culture bottles) and incubated for 5 min at 37 degrees Celsius, and the biotase is separated by centrifugation. Cells cultivated in suspension (MEC-1 and lymphocytes) were transferred by dilution. The cells are suspended in culture medium and counted, each time 1.5×10^5 cells/cm^2 are seeded in 48-well plates and cultured for between 1.5 and 24 hours at 37 degrees Celsius, 5% CO2. Peptides are pre-diluted from stock solution with culture medium and 200 μl of peptide solution added so that final concentrations of 30 to 500 μM peptide are present in at most 1% (v/v) DMSO. As control solutions, culture medium without peptide (DMSO-containing) in culture medium or etoposide solution is added. After incubating the cells for several hours, the cell supernatant is transferred to a FACS tube for each batch and, after washing the cells with PBS, the wash solution is added. Then the cells are incubated with 200 μl of biotase solution for 10 min, 37° C., the cells with the biotase are also transferred to the FACS tube and the cells are collected by centrifugation for 5 min. The cell pellet is suspended in 500 μl of serum-free culture medium, then 1.5 ml of cold 80% ethanol (ethanol/PBS-80/20, v/v, stored at −20° C.) is added, the FACS tubes sealed and stored at −20 degrees Celsius for 15 to 18 h. Thereafter, the cells are centrifuged for 5 minutes at 120 g, suspended after removal of the supernatant in 2 ml PBS and incubated at 37 degrees Celsius for 30 minutes. After re-centrifugation, the cells are suspended in 0.5 ml DAPI solution and incubated for 15 min at 20 degrees Celsius in the dark. Thereafter, the cells are stored dark for a maximum of four hours in an ice bath, followed by the FACS analysis.
The adherent cells (A375 and BxPC-3 cells and MDA-MB-231, respectively) are seeded 24 hours before induction in 6-well plates in culture medium. For this, the cells are washed with PBS, then incubated with trypsin/EDTA solution at 37 degrees Celsius and suspended in culture medium. The 6-well plates are loaded with 1×10^5 cells/cm^2 in culture medium and the cells incubated for 24 hours until induction with the peptides in the incubator. For induction, the peptides are diluted in fresh culture medium. As control solutions, culture medium without peptide (DMSO-containing) in culture medium or etoposide solution is added. The cells are washed with PBS. Thereafter the peptide solution in culture medium is added to the cells. After incubation in the incubator (37° C., 5% CO2) between 1.5 and 24 hours, the cell supernatant is transferred to 15 ml centrifuge tubes, the cells are washed with 0.75 ml PBS and then with 0.5 ml versene solution. Both washings are combined with the cell supernatant. The cells are then added with 0.5 ml of trypsin/EDTA solution and incubated at about 37° C. for at most 10 minutes until the cells detached. The cell suspension is combined with cell supernatant and washings and centrifuged at about 130 g for about 10 minutes. After removing the supernatant, the cells are suspended in 400 μl of cell culture medium (without serum) and mixed with 1.2 ml of 80% ethanol/20% PBS (v/v) and incubated for 1 to 7 days at −20° C. For analysis, the cells are centrifuged at 130 g for 10 min, suspended in 2 ml PBS, and centrifuged again for 5 min. The cells are suspended in 700 μl PI buffer and incubated for 10 min at 37° C. in the dark. Subsequently, the cells are stored dark for a maximum of four hours in an ice bath, then the FACS analysis is performed. […]

[2] = test system: human breast carcinoma cells (MDA-MB-231); assay: subG1 cell cycle FACS apoptosis assay, MDA-MB-231 cells; format: cell-based; conditions: about 24 hours; for apoptosis-inducing activity (subG1) relative to peptides SEQID No 28 and SEQID No 1: MDA-MB-231, SEQID No 41 at 50 μM versus monomeric peptides at 100 μM, FIG. 18
Protocol: (§2) The adherent cells (A375 and BxPC-3 cells and MDA-MB-231, respectively) are seeded 24 hours before induction in 6-well plates in culture medium. For this, the cells are washed with PBS, then incubated with trypsin/EDTA solution at 37 degrees Celsius and suspended in culture medium. The 6-well plates are loaded with 1×10^5 cells/cm^2 in culture medium and the cells incubated for 24 hours until induction with the peptides in the incubator. For induction, the peptides are diluted in fresh culture medium. As control solutions, culture medium without peptide (DMSO-containing) in culture medium or etoposide solution is added. The cells are washed with PBS. Thereafter the peptide solution in culture medium is added to the cells. After incubation in the incubator (37° C., 5% CO2) between 1.5 and 24 hours, the cell supernatant is transferred to 15 ml centrifuge tubes, the cells are washed with 0.75 ml PBS and then with 0.5 ml versene solution. Both washings are combined with the cell supernatant. The cells are then added with 0.5 ml of trypsin/EDTA solution and incubated at about 37° C. for at most 10 minutes until the cells detached. The cell suspension is combined with cell supernatant and washings and centrifuged at about 130 g for about 10 minutes. After removing the supernatant, the cells are suspended in 400 μl of cell culture medium (without serum) and mixed with 1.2 ml of 80% ethanol/20% PBS (v/v) and incubated for 1 to 7 days at −20° C. For analysis, the cells are centrifuged at 130 g for 10 min, suspended in 2 ml PBS, and centrifuged again for 5 min. The cells are suspended in 700 μl PI buffer and incubated for 10 min at 37° C. in the dark. Subsequently, the cells are stored dark for a maximum of four hours in an ice bath, then the FACS analysis is performed.
The second method analyzes the cell cycle phases which is drawn from the relative DNA content. Cells labeled by a fluorescent dye, using either DAPI or propidium iodide (PI) were analyzed by a cell sorter. The protocols for cell cultivation, treatment and preparation and staining of the cells for the flow cytometry is given in separate examples. […] When cells die by apoptosis, cellular changes lead to diminished DNA content resulting in a new peak located before the G0/G1 peak, often called “subG1” peak (Broecker-Preuss et al. 2015; Darzynkiewicz et al., 1992; Dbaibo et al. 1998; Fischbeck et al. 2011).
The “Flowing Software 2” program is used to draw from the raw data of the flow cytometer an FSC/SSC plot. This first step is performed in order to analyze a selected cell fraction excluding cells with both small FSC and small SSC values. Therefore, a gating area is drawn in a two-dimensional FSC/SSC plot (region R-1) which contains mainly intact cells, but no small vesicles. This is initially done for each cell type using reference cells which were not incubated with substances inducing cell death. By this selection of the cell fraction, a bias is prevented which would include a very high number of small cellular vesicles (apoptotic bodies) that are formed by membrane blebbing from dying cells, which have a low DNA content but which, by their large number, would increase the fraction of presumptive subG1 cells. […] In this DNA content plot, an analytical region is drawn in the area of lower DNA content to count the cells that show a subG1 peak, as illustrated in FIG. 1. The fraction of apoptotic cells is defined as the fraction of cells with DNA content in the subG1 region as part of the total number of cells in the DNA content plot (FIG. 1).
The evaluation of the FACS analysis to determine the subG1 data was also carried out with the program Flowing Software, version 2.5.1. The fluorescence in the respective analysis channel for DAPI or propidium iodide was plotted as a histogram, the data from the respectively defined region R-1 being utilized (see FIG. 1). […]

[3] = test system: A375 melanoma cells; assay: subG1 cell cycle FACS apoptosis assay, A375 melanoma cells; format: cell-based, human; conditions: A375, Protocol B, 100 μM, about 24 hours, FIG. 2
Protocol: as §1, §2
The proportion of cells which have died was determined by two methods, both rely on the analysis of cells by flow cytometry, often called FACS analysis. […]

k-k-w-m-v-v-y-f-r-k-s-g-s-g-s-k-k-w-m-v-v-y-f-r-k [SEQID No 41]
apoptosis-inducing activity (subG1) relative to peptides SEQID No 28 and SEQID No 27 [1]: at least double
apoptosis-inducing activity (subG1) relative to peptides SEQID No 28 and SEQID No 27 ([1]; listed as dimeric peptide): more than two-fold
apoptosis-inducing activity (subG1) relative to peptides SEQID No 28 and SEQID No 1 [2]: at least double
apoptosis-inducing activity (subG1) relative to peptides SEQID No 28 and SEQID No 1 ([2]; listed as dimeric peptide): more than two-fold

m-v-v-y-f-r-k [SEQID No 4]
apoptosis-inducing activity (subG1), comparison in words ([2]; MDA-MB-231, 200 μM, FIG. 13): increased apoptosis-inducing activity compared to the peptide SEQ C1

r-a-s-k-s-q-t-v-k-k-w-m-v-v-y-f-r-k-s-a-r [SEQID No 35]
apoptosis efficiency (subG1), in words ([1]; 100 and 200 μM, Examples 107-110): slightly higher apoptosis than the peptide sequence SEQID NO 33; also recorded: considerable efficiency to induce apoptosis in pancreatic cancer cells

w-m-v-v-y-f-r [SEQID No 1]
apoptosis induction (subG1), comparison in words ([1]; 100 μM, FIG. 14): stronger apoptosis induction compared to SEQ C1
apoptosis-inducing activity (subG1), comparison in words ([2]; MDA-MB-231, 200 μM, FIG. 13): increased apoptosis-inducing activity compared to the peptide SEQ C1

k-m-v-v-y-f-r [SEQID No 2]
apoptosis induction (subG1), comparison in words ([1]; 100 μM, FIG. 14): stronger apoptosis induction compared to SEQ C1
apoptosis-inducing activity (subG1), comparison in words ([2]; MDA-MB-231, 200 μM, FIG. 13): increased apoptosis-inducing activity compared to the peptide SEQ C1

k-w-m-v-v-y-f-r [SEQID No 9]
apoptosis efficiency (subG1), comparison in words [3]: extraordinary increased activity compared to peptide SEQ C1
apoptosis efficiency (subG1) in view of Peptide SEQ C1 ([1]; 100 μM, FIG. 14): at least fourfold
apoptosis efficiency (subG1) in view of Peptide SEQ No 12 ([1]; 100 μM, FIG. 14): at least threefold
apoptosis induction (subG1), comparison in words ([1]; 100 μM, FIG. 14): stronger apoptosis induction compared to SEQ C1; also recorded: strongly improved activity compared to peptide SEQID No 1

r-s-t-q-k-w-m-v-v-y-f-r-k [SEQID No 40]
apoptosis efficiency (subG1), comparison in words ([1]; 100 μM, FIG. 17): weaker activity
apoptosis-inducing activity (subG1), comparison in words ([2]; MDA-MB-231, 100 μM, FIG. 16, listed as SEQID 40): slightly smaller efficiency than SEQID No 33

w-w-m-v-v-y-f-r [SEQID No 12]
apoptosis induction (subG1), comparison in words ([1]; 100 μM, FIG. 14): stronger apoptosis induction compared to SEQ C1
apoptosis-inducing activity (subG1), comparison in words ([2]; MDA-MB-231, 200 μM, FIG. 13): slightly decreased activity compared to peptide SEQID No 1; also recorded: remarkably improved efficiency than SEQ C1

q-k-w-m-v-v-y-f-r-k [SEQID No 28]
apoptosis-inducing activity (subG1), comparison in words ([2]; MDA-MB-231, 100 μM, FIG. 15): higher apoptosis-inducing activity
apoptosis-inducing activity (subG1), comparison in words ([2]; MDA-MB-231, 100 μM, FIG. 15, listed as SEQID NO 28): improvement over SEQID NO 27

m-v-v-y-f-r-w [SEQID No 3]
apoptosis induction (subG1), comparison in words ([1]; 100 μM, FIG. 14): stronger apoptosis induction compared to SEQ C1
apoptosis-inducing activity (subG1), comparison in words ([2]; MDA-MB-231, 200 μM, FIG. 13): increased apoptosis-inducing activity compared to the peptide SEQ C1
